Paper PMC12173945, “Import mechanism of peroxisomal proteins with an N-terminal signal sequence” (Nature Cell Biology, 2025)
Substitutions are numbered along the chain they refer to.

Columns and labels:
[1] = system: yeast PEX7 bound to the ∆APH mutant of GST-tagged PEX39; test: Competitive binding: peptide displacement of PEX7 from GST-tagged ∆APH PEX39 beads (Fig. 8b); set-up: species or system yeast (S. cerevisiae); details: for Stripping of PEX7 off PEX39 lacking the APH: peptide competition, Fig. 8b
Protocol: For the assay shown in Fig. 8b, the beads were first incubated with yeast PEX7 and the GST-tagged ∆APH variant of yeast PEX39 (each at 1 µM) for 30 min at 25 °C with agitation. Varying concentrations of the peptides, as indicated in the text, were then added and the reactions were incubated for a further 1 h under the same conditions. The beads were finally sedimented and the resulting supernatant fractions resolved by SDS–PAGE as above.
To calculate the fraction bound in the quantitative binding assay, digitized images of Coomassie-stained gels were first converted into 16-bit grayscale and their pixel intensities inverted. The mean pixel intensity was then measured within a rectangular selection encompassing each PEX7 protein band and the mean intensity of the background was subtracted from the measured values. The background-corrected intensities (corresponding to unbound PEX7 remaining in solution) were in turn subtracted from the intensity of the PEX7 band in a sample without PEX39 (that is, total PEX7). The resulting difference (corresponding to PEX7 that had bound to the beads) was finally divided by the total PEX7 intensity to yield the fraction bound. The data were fitted either to a standard binding isotherm or a competitive-binding isotherm, as appropriate, to estimate the observed binding constants.

yeast PEX7 = test: Bead-binding assay: peptide-conjugated beads, recruitment of PEX7–GFP or PTS2–GFP; set-up: species or system yeast (S. cerevisiae); details: 1 h; for Recruitment of PTS2–GFP to peptide-conjugated beads: 1 µM PEX7 and 1 µM receptor, 1 µM cargo; for Recruitment of PEX7–GFP to peptide-conjugated beads: peptide on thiol-reactive beads, fluorescence microscopy
Excerpt: (§1) Cysteine-containing peptides were covalently conjugated to thiol-reactive SulfoLink coupling resin (Thermo Fisher, catalogue number 20401) according to the manufacturer’s instructions. The prepared beads were then mixed with Assay Buffer containing the fluorescently labelled protein as well as additional components indicated in the text, and the resulting bead suspensions were transferred to a 384-well glass-bottomed plate (Cellvis, P384-1.5H-N). GST-fusion proteins were instead mixed with glutathione agarose 4B (Prometheus, 20-543) in Assay Buffer containing the fluorescently labelled protein and additional components indicated in the text; the resulting bead suspensions were then transferred to a glass-bottomed plate as above. The plates were incubated at RT for the durations specified in the text and directly imaged on the spinning-disk confocal platform described earlier for peroxisomal import reactions in Xenopus egg extract. Note that imaging the beads directly in the binding reaction preserves the equilibrium and thereby allows even weak interactions to be detected. Fluorescence was collected through a Nikon ×10 0.45 NA Plan Apo air objective, and images were acquired using the Nikon NIS-Elements software and a 16-bit digitizer without binning. Imaging parameters were configured to maximize the SNR while avoiding saturation. Samples intended to be compared were imaged using identical acquisition settings.

[2] = system: PEX7–receptor–cargo complex on PEX39-coated beads; test: Bead-binding assay: recruitment of PEX7–receptor–cargo complex to PEX39-coated beads (Fig. 7d, 8a); set-up: species or system yeast (S. cerevisiae); details: 100 µM peptide, overnight, Fig. 8a
Excerpt: as §1

[3] = system: YG hydrogel (wild-type YG-domain polypeptide of PEX13); test: YG hydrogel permeation assay, wild-type hydrogel (Fig. 2, Fig. 3g, Extended Data Fig. 9d); details: for Displacement: PEX5-21 + PEX7
Protocol: A solution of the purified wild-type YG-domain polypeptide (or the variant lacking the KPWE motif) was concentrated to 2 mM in 50 mM HEPES·NaOH pH 7.8 at RT, 2 M urea and 2 mM TCEP. Aliquots of 2 µl were then spotted on the bottom of multiple wells of a 96-well glass-bottomed plate (Cellvis, P96-1.5H-N), which was then sealed with a gas-impermeable AlumaSeal II film (Hampton Research, HR8-069) to prevent desiccation and incubated at RT for 24 h. Before each assay, the resulting gels were equilibrated overnight at RT in a 100-fold excess of Assay Buffer (25 mM HEPES·NaOH pH 7.8 at RT, 150 mM NaCl and 1 mM TCEP). A 0.5 µM solution of fluorescently labelled protein in Assay Buffer was then added to the samples, with or without additional components at the concentrations indicated in the text, and incubated at RT. Gels were imaged at the times indicated in the text using a Nikon A1R point-scanning confocal system consisting of an inverted Nikon Eclipse Ti microscope and a Nikon ×20 0.75 NA Plan Apo air objective. The objective was centred on the gel edge and focus was maintained 5 µm above the glass surface using the Nikon Perfect Focus System. Fluorescence was excited through a 405/488/561/647 quad-band dichroic (Chroma), using a 488-nm solid-state laser (Coherent) and a galvano scanner. A 50-nm emission band was collected on a gallium arsenide phosphide detector, using an ET525/50m (525 ± 25 nm) single-band bandpass filter (Chroma) and a pinhole dilated to 0.9 Airy units. Images were acquired using the Nikon NIS-Elements software with a pixel size of 1 µm and a 12-bit digitizer. Imaging parameters were configured to maximize the SNR while avoiding saturation. All samples intended to be compared were imaged using identical acquisition settings.
For the YG hydrogel permeation assay, images were first oriented such that each gel edge faced the same direction. Fluorescence profiles across the buffer–gel interface were then generated by centering a 60 × 300 µm rectangular area on the gel edge and then measuring the mean fluorescence at each position within this selection. To express the resulting values in terms of fold enrichment, the fluorescence at each position along the selection was normalized to the average fluorescence in the buffer and plotted in terms of the distance from the gel edge.
To calculate permeation rates through the YG hydrogel, a 60 × 300 µm rectangular area was first centred on the gel edge. The resulting region was then thresholded to demarcate the permeation zone (that is, the distance traversed by the fluorescent species) from the buffer and non-permeated part of the gel. The width of the area above the threshold was then measured and plotted as a function of time. A linear fit to the data yielded the permeation rate.

yeast PEX7, P39108 = molecular target: T1, yeast PEX7, P39108; test: bead sedimentation (GST pull-down depletion) assay, SDS-PAGE with Coomassie quantification of PEX7 left in the supernatant; details: chain shown with the change; 1 µM yeast PEX7; varying GST-PEX39 concentrations; 1 h; 25 °C; parent: 0.60 ± 0.056
T1 chain: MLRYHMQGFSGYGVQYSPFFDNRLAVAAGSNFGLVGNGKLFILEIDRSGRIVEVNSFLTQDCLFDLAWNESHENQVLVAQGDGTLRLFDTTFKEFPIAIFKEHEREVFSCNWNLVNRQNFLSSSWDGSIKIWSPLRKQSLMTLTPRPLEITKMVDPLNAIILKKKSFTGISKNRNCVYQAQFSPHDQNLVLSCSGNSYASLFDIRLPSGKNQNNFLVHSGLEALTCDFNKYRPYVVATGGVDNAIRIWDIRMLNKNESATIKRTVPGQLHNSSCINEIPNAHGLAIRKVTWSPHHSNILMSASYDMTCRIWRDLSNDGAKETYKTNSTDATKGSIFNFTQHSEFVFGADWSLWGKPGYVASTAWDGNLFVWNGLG

[4] = molecular target: T2, yeast PEX7 fused at the C terminus to GFP (PEX7–GFP) (yeast (S. cerevisiae), UniProt P39108 1-375); test: YG hydrogel release assay (confocal microscopy); hydrogels equilibrated 3 h at RT with 0.5 µM PEX7–GFP or PEX5–GFP, with or without PTS2 peptide and receptor; PEX39 then spiked in and gels imaged every 2 min for 1 h; details: both partners purified
T2 construct: PEX7, yeast (S. cerevisiae); not shown: GST, N-terminal, cleaved; GFP, C-terminal, kept
T2 sequence (looked up): T1 chain

[5] = molecular target: T3, GST-tagged yeast PEX7 (GST–PEX7) (yeast (S. cerevisiae), UniProt P39108 1-375); test: bead-binding assay (fluorescence on beads by spinning-disk confocal microscopy); GST-tagged protein on glutathione beads; GFP-fused partner in solution (1 µM each in Extended Data Fig. 9a); 1 h, RT; details: both partners purified
T3 construct: PEX7, yeast (S. cerevisiae); GST followed by a TEV protease-cleavage site; source: purified recombinant; PEX7 was produced in P. pastoris as a fusion to an N-terminal GST tag; not shown: GST, N-terminal, kept
T3 sequence (looked up): T1 chain

“CSSTAVPRPKPWETSASLEE [KPWE peptide, residues 2–20 of S. cerevisiae PEX13 with an additional N-terminal cysteine]” was tested, and the “Kobs (observed binding constant)” value ([1]; PEX7 and GST-PEX39 ∆APH each 1 µM, peptide added 1 h, 25 °C, competitive-binding isotherm, mean ± s.e.m., three independent experiments, ND = binding not detectable) was 41 ± 1.2 µM, the Fraction bound ([1]; [Peptide] 10 µM, replicate 1) was 0.810 and the Fraction bound ([1]; [Peptide] 10 µM, replicate 2) was 0.769. It also gave a Fraction bound ([1]; [Peptide] 10 µM, replicate 3) of 0.841, a Fraction bound ([1]; [Peptide] 30 µM, replicate 1) of 0.666 and a Fraction bound ([1]; [Peptide] 30 µM, replicate 2) of 0.688. It also gave a Fraction bound ([1]; [Peptide] 30 µM, replicate 3) of 0.732, a Fraction bound ([1]; [Peptide] 100 µM, replicate 1) of 0.458 and a Fraction bound ([1]; [Peptide] 100 µM, replicate 2) of 0.521. For the same molecule, the Fraction bound ([1]; [Peptide] 100 µM, replicate 3) was 0.552, the Fraction bound ([1]; [Peptide] 300 µM, replicate 1) was 0.302 and the Fraction bound ([1]; [Peptide] 300 µM, replicate 2) was 0.372. It also gave a Fraction bound ([1]; [Peptide] 300 µM, replicate 3) of 0.402, a Fraction bound ([1]; [Peptide] 1000 µM, replicate 1) of 0.141 and a Fraction bound ([1]; [Peptide] 1000 µM, replicate 2) of 0.198. The Fraction bound ([1]; [Peptide] 1000 µM, replicate 3) was 0.200, the “Stripping of PEX7 off PEX39 lacking the APH” value [1] was “could strip off PEX7 from PEX39 lacking the APH” and the “Recruitment of PTS2–GFP to peptide-conjugated beads” value (yeast PEX7) was “could recruit PTS2–GFP only when PEX7 and the receptor were both present”. The “Recruitment of PEX7–GFP to peptide-conjugated beads” value (yeast PEX7) was “could recruit yeast PEX7 fused at the C terminus to GFP” and the “Effect of peptide on recruitment of the PEX7–receptor–cargo complex to PEX39-coated beads” value [2] was “no longer efficiently recruited to PEX39-coated beads”.

In the case of “CSSTAVPEPRWKPTSASLEE [scrambled peptide, KPWE peptide with amino acids 8 and 10–13 rearranged]”, the Fraction bound ([1]; [Peptide] 10 µM, replicate 1) is reported as 0.936, the Fraction bound ([1]; [Peptide] 10 µM, replicate 2) is reported as 0.865 and the Fraction bound ([1]; [Peptide] 10 µM, replicate 3) is reported as 0.914. For the same molecule, the Fraction bound ([1]; [Peptide] 30 µM, replicate 1) was 0.947, the Fraction bound ([1]; [Peptide] 30 µM, replicate 2) was 0.840 and the Fraction bound ([1]; [Peptide] 30 µM, replicate 3) was 0.887. It also gave a Fraction bound ([1]; [Peptide] 100 µM, replicate 1) of 0.965, a Fraction bound ([1]; [Peptide] 100 µM, replicate 2) of 0.864 and a Fraction bound ([1]; [Peptide] 100 µM, replicate 3) of 0.888. For the same molecule, the Fraction bound ([1]; [Peptide] 300 µM, replicate 1) was 0.952, the Fraction bound ([1]; [Peptide] 300 µM, replicate 2) was 0.871 and the Fraction bound ([1]; [Peptide] 300 µM, replicate 3) was 0.887. For the same molecule, the Fraction bound ([1]; [Peptide] 1000 µM, replicate 1) was 0.902, the Fraction bound ([1]; [Peptide] 1000 µM, replicate 2) was 0.861 and the Fraction bound ([1]; [Peptide] 1000 µM, replicate 3) was 0.848. For the same molecule, the “Stripping of PEX7 off PEX39 lacking the APH” value [1] was “could not”, the “Recruitment of PTS2–GFP to peptide-conjugated beads” value (yeast PEX7) was “No binding was seen” and the “Recruitment of PEX7–GFP to peptide-conjugated beads” value (yeast PEX7) was “could not”. The “Effect of peptide on recruitment of the PEX7–receptor–cargo complex to PEX39-coated beads” value [2] was “had no effect”.

“PTS1: mEGFP fused at the C terminus to an enhanced PTS1 import signal (GYKGLKSKL)” showed a Displacement ([3]; 0 min, replicate 1) of 0.000 µm, a Displacement ([3]; 0 min, replicate 2) of 0.000 µm and a Displacement ([3]; 0 min, replicate 3) of 0.000 µm. The Displacement ([3]; 30 min, replicate 1) was 44.992 µm, the Displacement ([3]; 30 min, replicate 2) was 39.993 µm and the Displacement ([3]; 30 min, replicate 3) was 31.994 µm. The Displacement ([3]; 60 min, replicate 1) was 64.988 µm, the Displacement ([3]; 60 min, replicate 2) was 59.989 µm and the Displacement ([3]; 60 min, replicate 3) was 45.992 µm.

B1: GST-tagged wild-type yeast PEX39 (GST–PEX39), P47087 ΔRPWE (RPWE motif converted to alanine) (protein)
chain: MAAGGELSYEELLDHILNNKPIPNIVEVPNVTLDEGLASTPSLRPRPAAAAGQLQHQSHQGSLDKPNISLDIDQESLEGMTSLTRLSECYDIQSKLQINDSDNDNDDNNNDNNKGDGNDDDNNTVTANPTAR
B1 was tested, and the other: Kobs (observed binding constant) (yeast PEX7, P39108) was 190 µM.

B2: wild-type yeast PEX39 (natural protein, UniProt P47087 1-132, looked up)
chain: B1 chain with A48R, A49P, A50W, A51E
notes: PEX39, yeast; also called WT; not shown: GST, N-terminal, cleaved
B2: binds [4].

B3: yeast PEX39 fused at the C terminus to GFP (PEX39–GFP) (natural protein, UniProt P47087 1-132, looked up)
chain: B1 chain with A48R, A49P, A50W, A51E
notes: PEX39, yeast; not shown: GST, N-terminal, cleaved; GFP, C-terminal, kept
B3: binds [5].

B4: PEX39–GFP: PEX39 fused at the C terminus to a GSG linker and mEGFP (protein)
chain: B1 chain with A48R, A49P, A50W, A51E
modifications: left off: GST, N-terminal, cleaved | GFP, C-terminal, kept
notes: PEX39 fused at the C terminus to a GSG linker and mEGFP
B4 was tested, and the “Entry into YG hydrogel” value ([3]; wild-type hydrogel) was “did not by itself enter the YG hydrogel”.
